Data from the NIST ThermoML archive (doi:10.1021/je900048r).
Numbers after ± are expanded uncertainties.

Assay: xn = mol fraction of the nth substance listed
Settings: Liquid, Other PVT measurement

CCCCn1cc[n+](C)c1.F[B-](F)(F)F [1-butyl-3-methylimidazolium tetrafluoroborate] + c1ccccc1
mass density [kg/m3]
Settings	x1 = 0.5	x1 = 0.5999	x1 = 0.7001	x1 = 0.8	x1 = 0.8999	x1 = 1
313.15 K, 200 kPa	1111 ± 11	1129 ± 11	1145 ± 12	1158 ± 12	1172 ± 12	1185 ± 12
313.15 K, 600 kPa	1111 ± 11	1130 ± 11	1145 ± 12	1158 ± 12	1172 ± 12	1186 ± 12
313.15 K, 1000 kPa	1111 ± 11	1130 ± 11	1146 ± 12	1158 ± 12	1173 ± 12	1186 ± 12
313.15 K, 1400 kPa	1111 ± 11	1131 ± 11	1146 ± 12	1159 ± 12	1173 ± 12	1186 ± 12
313.15 K, 1800 kPa	1111 ± 11	1131 ± 11	1147 ± 12	1159 ± 12	1173 ± 12	1187 ± 12
313.15 K, 2000 kPa	1111 ± 11	1132 ± 11	1147 ± 12	1159 ± 12	1173 ± 12	1187 ± 12
353.15 K, 200 kPa	1082 ± 11	1102 ± 11	1118 ± 11	1131 ± 11	1145 ± 12	1159 ± 12
353.15 K, 600 kPa	1082 ± 11	1103 ± 11	1118 ± 11	1131 ± 11	1145 ± 12	1160 ± 12
353.15 K, 1000 kPa	1083 ± 11	1103 ± 11	1118 ± 11	1131 ± 11	1145 ± 12	1160 ± 12
353.15 K, 1400 kPa	1083 ± 11	1103 ± 11	1118 ± 11	1132 ± 11	1146 ± 12	1160 ± 12
353.15 K, 1800 kPa	1084 ± 11	1104 ± 11	1119 ± 11	1132 ± 11	1146 ± 12	1161 ± 12
353.15 K, 2000 kPa	1084 ± 11	1104 ± 11	1119 ± 11	1132 ± 11	1146 ± 12	1161 ± 12
393.15 K, 600 kPa	1055 ± 11	1076 ± 11	1092 ± 11	1106 ± 11	1120 ± 11	1135 ± 11
393.15 K, 1000 kPa	1055 ± 11	1076 ± 11	1092 ± 11	1106 ± 11	1120 ± 11	1135 ± 11
393.15 K, 1400 kPa	1055 ± 11	1077 ± 11	1092 ± 11	1106 ± 11	1120 ± 11	1135 ± 11
393.15 K, 1800 kPa	1056 ± 11	1077 ± 11	1092 ± 11	1106 ± 11	1121 ± 11	1136 ± 11
393.15 K, 2000 kPa	1056 ± 11	1078 ± 11	1093 ± 11	1106 ± 11	1121 ± 11	1136 ± 11
433.15 K, 1400 kPa	1028 ± 10	1050 ± 11	1066 ± 11	1080 ± 11	1096 ± 11	1112 ± 11
433.15 K, 1800 kPa	1029 ± 10	1050 ± 11	1067 ± 11	1081 ± 11	1096 ± 11	1113 ± 11
433.15 K, 2000 kPa	1029 ± 10	1051 ± 11	1067 ± 11	1081 ± 11	1096 ± 11	1113 ± 11
